From patent publication US7977322B2 (Vertex Pharmaceuticals Incorporated, priority 2004, dated 2011) come the findings set out here.

This assay has as its target T1, ΔF508-CFTR (Homo sapiens, UniProt P13569, DEL508-508).
T1 construct: expressed in transfected cells
The assay is described as follows: Membrane potential optical (FRET/VIPR) assay, identification of correction compounds. The assay is classed as cell-based. The following applies: Table 3, assay not given; for Emax: read-out: % Activity / % Efficacy (relative efficacy). An excerpt: I) Membrane Potential Optical Methods for Assaying ΔF508-CFTR Modulation Properties of Compounds
These voltage sensitive assays are based on the change in fluorescence resonant energy transfer (FRET) between the membrane-soluble, voltage-sensitive dye, DiSBAC2(3), and a fluorescent phospholipid, CC2-DMPE, which is attached to the outer leaflet of the plasma membrane and acts as a FRET donor. Changes in membrane potential (Vm) cause the negatively charged DiSBAC2(3) to redistribute across the plasma membrane and the amount of energy transfer from CC2-DMPE changes accordingly. The changes in fluorescence emission were monitored using VIPR™ II, which is an integrated liquid handler and fluorescent detector designed to conduct cell-based screens in 96- or 384-well microtiter plates.
Identification of Correction Compounds
To identify small molecules that correct the trafficking defect associated with ΔF508-CFTR; a single-addition HTS assay format was developed. The cells were incubated in serum-free medium for 16 hrs at 37° C. in the presence or absence (negative control) of test compound. As a positive control, cells plated in 384-well plates were incubated for 16 hrs at 27° C. to “temperature-correct” ΔF508-CFTR. The cells were subsequently rinsed 3× with Krebs Ringers solution and loaded with the voltage-sensitive dyes. To activate ΔF508-CFTR, 10 μM forskolin and the CFTR potentiator, genistein (20 μM), were added along with Cl^− free medium to each well. The addition of Cl^− free medium promoted Cl^− efflux in response to ΔF508-CFTR activation and the resulting membrane depolarization was optically monitored using the FRET-based voltage-sensor dyes.
• Bath Solution #1: (in mM) NaCl 160, KCl 4.5, CaCl2 2, MgCl2 1, HEPES 10, pH 7.4 with NaOH. • Chloride-free bath solution: Chloride salts in Bath Solution #1 are substituted with gluconate salts. • CC2-DMPE: Prepared as a 10 mM stock solution in DMSO and stored at −20° C. • DiSBAC2(3): Prepared as a 10 mM stock in DMSO and stored at −20° C.
NIH3T3 mouse fibroblasts stably expressing ΔF508-CFTR are used for optical measurements of membrane potential. The cells are maintained at 37° C. in 5% CO2 and 90% humidity in Dulbecco's modified Eagle's medium supplemented with 2 mM glutamine, 10% fetal bovine serum, 1×NEAA, β-ME, 1×pen/strep, and 25 mM HEPES in 175 cm^2 culture flasks. For all optical assays, the cells were seeded at 30,000/well in 384-well matrigel-coated plates and cultured for 2 hrs at 37° C. before culturing at 27° C. for 24 hrs. for the potentiator assay.

pEC50: −log10 of the molar value.

T1 sequence (P13569 with tags, fused parts or gaps DEL508-508): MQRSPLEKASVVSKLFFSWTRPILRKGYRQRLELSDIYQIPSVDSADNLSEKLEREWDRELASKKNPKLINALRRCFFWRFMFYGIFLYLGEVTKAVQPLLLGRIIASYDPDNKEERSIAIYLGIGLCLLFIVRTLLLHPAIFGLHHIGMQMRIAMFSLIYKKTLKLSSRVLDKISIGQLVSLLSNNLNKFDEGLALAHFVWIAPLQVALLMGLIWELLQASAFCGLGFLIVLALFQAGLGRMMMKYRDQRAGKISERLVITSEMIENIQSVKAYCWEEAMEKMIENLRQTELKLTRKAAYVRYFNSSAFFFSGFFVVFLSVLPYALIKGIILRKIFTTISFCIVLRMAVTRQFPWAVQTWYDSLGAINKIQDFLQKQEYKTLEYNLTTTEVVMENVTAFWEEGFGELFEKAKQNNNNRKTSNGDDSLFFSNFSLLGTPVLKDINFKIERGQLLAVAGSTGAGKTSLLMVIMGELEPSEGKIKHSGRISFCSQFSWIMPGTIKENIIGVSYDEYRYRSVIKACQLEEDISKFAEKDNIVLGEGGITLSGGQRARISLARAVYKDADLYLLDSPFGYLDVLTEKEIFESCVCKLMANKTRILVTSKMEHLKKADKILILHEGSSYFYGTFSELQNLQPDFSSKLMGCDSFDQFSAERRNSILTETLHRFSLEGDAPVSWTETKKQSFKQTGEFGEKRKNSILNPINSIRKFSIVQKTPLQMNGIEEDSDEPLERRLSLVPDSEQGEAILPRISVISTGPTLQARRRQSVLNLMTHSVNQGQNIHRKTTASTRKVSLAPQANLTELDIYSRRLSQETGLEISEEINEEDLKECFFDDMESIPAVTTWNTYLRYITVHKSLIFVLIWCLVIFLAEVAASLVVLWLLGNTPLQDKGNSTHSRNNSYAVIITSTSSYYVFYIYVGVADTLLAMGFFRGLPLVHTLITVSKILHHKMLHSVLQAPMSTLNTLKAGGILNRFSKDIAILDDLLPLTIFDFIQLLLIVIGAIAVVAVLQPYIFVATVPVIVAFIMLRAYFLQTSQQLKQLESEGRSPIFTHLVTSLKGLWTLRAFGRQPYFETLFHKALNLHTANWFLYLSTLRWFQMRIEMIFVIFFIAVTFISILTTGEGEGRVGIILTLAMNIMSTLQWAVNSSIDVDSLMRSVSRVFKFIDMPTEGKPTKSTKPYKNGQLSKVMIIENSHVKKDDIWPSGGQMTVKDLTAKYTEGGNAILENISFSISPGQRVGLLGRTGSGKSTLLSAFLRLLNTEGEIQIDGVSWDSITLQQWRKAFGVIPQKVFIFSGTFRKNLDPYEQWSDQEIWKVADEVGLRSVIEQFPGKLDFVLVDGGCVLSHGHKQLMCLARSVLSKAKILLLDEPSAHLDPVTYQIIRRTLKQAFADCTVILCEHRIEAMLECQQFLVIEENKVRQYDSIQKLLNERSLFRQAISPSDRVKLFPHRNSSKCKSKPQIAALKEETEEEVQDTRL

With `COc1ccc(C2(C(=O)Nc3ncc(Cc4ccc(Cl)cc4)s3)CC2)cc1` [Example 13], the negative-log EC50 (pEC50) is over 5.00 and the Emax is over 100%.

`COc1ccc(C2(C(=O)Nc3nc(-c4ccccc4)cs3)CC2)cc1` [Example 17]: the negative logarithm of the EC50 (pEC50) is over 5.00 and the Emax is over 100%.

Turning to `O=C(Nc1ncc(Cc2ccccc2Cl)s1)C1(c2ccc(F)cc2)CCCC1` [Example 26], the negative-log EC50 (pEC50) was over 5.00 and the Emax was over 100%.

In the case of `COc1ccccc1Cc1cnc(NC(=O)C2(c3ccc(Cl)cc3)CC2)s1` [Example 32], the pEC50 was over 5.00 and the Emax is over 100%.

For the molecule `COc1ccc(C2(C(=O)Nc3ncc(Sc4ccccc4Cl)s3)CC2)cc1` [Example 36], the pEC50 is over 5.00 and the Emax lay in the range of 25 to 100%.

With `COc1ccc(C2(C(=O)Nc3ncc(Sc4cccc(Cl)c4)s3)CC2)cc1` [Example 37], the pEC50 is over 5.00 and the Emax was over 100%.

For the molecule `COc1ccc(C2(C(=O)Nc3ncc(C(=O)c4ccccc4Cl)s3)CC2)cc1` [Example 44], the pEC50 was over 5.00 and the Emax is over 100%.

Take `COc1ccc(C2(C(=O)Nc3nc4ccc(Cl)cc4s3)CC2)cc1` [Example 47]: the negative-log EC50 (pEC50) was over 5.00 and the Emax lay in the range of 25 to 100%.

For `COc1ccc(C2(C(=O)Nc3ncc(Cc4ccccc4Cl)s3)CC2)cc1OC` [Example 55], the “% Activity / % Efficacy (relative efficacy)” value is “+++ (“+++” means>100%)” and the pEC50 was over 5.00.

As to `O=C(Nc1ncc(Cc2ccccc2Cl)s1)C1(c2ccc3c(c2)OCO3)CC1` [Example 56], the “% Activity / % Efficacy (relative efficacy)” value is on record as “++ (“++” means between 25% to 100%)” and the pEC50 is over 5.00.

Regarding `COc1ccc(C2(C(=O)Nc3ncc(Cc4ccccc4OC)s3)CCOCC2)cc1` [Example 57], the “% Activity / % Efficacy (relative efficacy)” value is listed as “+++ (“+++” means>100%)” and the pEC50 is over 5.00.

On to `COc1ccccc1Cc1cnc(NC(=O)C2(c3ccc(OC)c(OC)c3)CC2)s1` [Example 58], for which the “% Activity / % Efficacy (relative efficacy)” value is reported as “+++ (“+++” means>100%)” and the pEC50 is over 5.00.

Take `COc1ccc(C2(C(=O)Nc3ncc(Cc4ccccc4C#N)s3)CC2)cc1OC` [Example 61]: the “% Activity / % Efficacy (relative efficacy)” value is given as “+++ (“+++” means>100%)” and the pEC50 is over 5.00.

On to `N#Cc1ccccc1Cc1cnc(NC(=O)C2(c3ccc4c(c3)OCO4)CC2)s1` [Example 62], for which the “% Activity / % Efficacy (relative efficacy)” value was “++ (“++” means between 25% to 100%)” and the negative logarithm of the EC50 (pEC50) is 4.60 to 5.00.

Turning to `COc1ccc(C2(C(=O)Nc3ncc(Cc4ccccc4Cl)n3C)CC2)cc1` [Example 63], the “% Activity / % Efficacy (relative efficacy)” value is reported as “+++ (“+++” means>100%)” and the negative-log EC50 (pEC50) is over 5.00.

With `COc1ccc(C2(C(=O)Nc3ncc(C)s3)CC2)cc1` [Example 64], the “% Activity / % Efficacy (relative efficacy)” value is “+++ (“+++” means>100%)” and the pEC50 was over 5.00.

With `COc1ccccc1C1(C(=O)Nc2ncc(Cc3ccccc3Cl)s2)CC1` [Example 65], the pEC50 is over 5.00 and the Emax was over 100%.

On to `COc1cccc(C2(C(=O)Nc3ncc(Cc4ccccc4Cl)s3)CC2)c1` [Example 66], for which the “% Activity / % Efficacy (relative efficacy)” value is reported as “+++ (“+++” means>100%)” and the pEC50 is over 5.00.

`COc1cccc(C2(C(=O)Nc3ncc(Cc4ccccc4OC)s3)CC2)c1` [Example 67]: the “% Activity / % Efficacy (relative efficacy)” value is listed as “++ (“++” means between 25% to 100%)” and the negative logarithm of the EC50 (pEC50) was 4.22 to 4.60.

Regarding `COc1ccccc1C1(C(=O)Nc2ncc(Cc3ccccc3C#N)s2)CC1` [Example 68], the pEC50 is over 5.00 and the Emax lay in the range of 25 to 100%.

`COc1cccc(C2(C(=O)Nc3ncc(Cc4ccccc4C#N)s3)CC2)c1` [Example 69]: the “% Activity / % Efficacy (relative efficacy)” value is listed as “+++ (“+++” means>100%)” and the pEC50 is over 5.00.

Regarding `COc1ccccc1Cc1cnc(NC(=O)C2(c3ccccc3OC)CC2)s1` [Example 70], the “% Activity / % Efficacy (relative efficacy)” value was “++ (“++” means between 25% to 100%)” and the pEC50 was over 5.00.

`COC(=O)Cn1cc(Cc2ccccc2Cl)sc1=NC(=O)C1(c2ccc(OC)cc2)CC1` [Example 72]: the “% Activity / % Efficacy (relative efficacy)” value is “++ (“++” means between 25% to 100%)” and the negative logarithm of the EC50 (pEC50) is 4.22 to 4.60.

`CCN(CC)CCn1cc(Cc2ccccc2Cl)s/c1=N/C(=O)C1(c2ccc(OC)cc2)CC1` [Example 73]: the pEC50 was 4.22 to 4.60 and the Emax was under 25%.

`CCN(CC)CCn1cc(Cc2ccccc2Cl)s/c1=N/C(=O)C1(c2ccc(OC)cc2)CC1` [Example 74]: the “% Activity / % Efficacy (relative efficacy)” value was “++ (“++” means between 25% to 100%)” and the pEC50 is 4.22 to 4.60.

As for `CCN(CC)CCN(C(=O)C1(c2ccc(OC)cc2)CC1)c1ncc(Cc2ccccc2Cl)s1` [Example 75], the “% Activity / % Efficacy (relative efficacy)” value is given as “++ (“++” means between 25% to 100%)” and the negative logarithm of the EC50 (pEC50) was 4.22 to 4.60.

For the molecule `COc1ccc(C2(C(=O)Nc3ncc(Cc4ccccc4C(N)=O)s3)CC2)cc1` [Example 76], the “% Activity / % Efficacy (relative efficacy)” value is reported as “+++ (“+++” means>100%)” and the pEC50 was over 5.00.

Turning to `COc1ccc(C2(C(=O)Nc3nc(-c4ccc(C)cc4)cs3)CC2)cc1` [Example 77], the “% Activity / % Efficacy (relative efficacy)” value is listed as “+++ (“+++” means>100%)” and the negative logarithm of the EC50 (pEC50) is over 5.00.

Consider `COc1ccc(C2(C(=O)Nc3nc(-c4ccc(Cl)cc4)cs3)CC2)cc1` [Example 78], for which the “% Activity / % Efficacy (relative efficacy)” value is reported as “+++ (“+++” means>100%)” and the pEC50 is over 5.00.

On to `COc1ccc(-c2csc(NC(=O)C3(c4ccc(OC)cc4)CC3)n2)cc1` [Example 79], for which the “% Activity / % Efficacy (relative efficacy)” value is on record as “+++ (“+++” means>100%)” and the pEC50 was over 5.00.

In the case of `O=C(Nc1nc(-c2ccccc2)cs1)C1(c2ccc3c(c2)OCO3)CC1` [Example 80], the “% Activity / % Efficacy (relative efficacy)” value is on record as “+++ (“+++” means>100%)” and the pEC50 was over 5.00.

With `O=C(Nc1nc(-c2ccccc2Cl)cs1)C1(c2ccc3c(c2)OCO3)CC1` [Example 81], the “% Activity / % Efficacy (relative efficacy)” value is on record as “+++ (“+++” means>100%)” and the negative-log EC50 (pEC50) is over 5.00.

Consider `Cc1ccc(-c2csc(NC(=O)C3(c4ccc5c(c4)OCO5)CC3)n2)cc1` [Example 82], for which the “% Activity / % Efficacy (relative efficacy)” value was “+++ (“+++” means>100%)” and the pEC50 is over 5.00.

Take `Cc1cnc(NC(=O)C2(c3ccc4c(c3)OCO4)CC2)s1` [Example 85]: the “% Activity / % Efficacy (relative efficacy)” value is reported as “+++ (“+++” means>100%)” and the pEC50 is over 5.00.

As to `O=C(Nc1ncc(-c2ccccc2)s1)C1(c2ccc3c(c2)OCO3)CC1` [Example 86], the “% Activity / % Efficacy (relative efficacy)” value was “+++ (“+++” means>100%)” and the negative logarithm of the EC50 (pEC50) was over 5.00.

For the molecule `COc1ccc(C2(C(=O)Nc3ncc([S+]([O-])c4ccccc4OC)s3)CC2)cc1` (centres unmarked) [Example 87], the “% Activity / % Efficacy (relative efficacy)” value was “+++ (“+++” means>100%)” and the negative logarithm of the EC50 (pEC50) was over 5.00.

On to `COc1ccc(C2(C(=O)Nc3ncc(S(=O)(=O)c4ccccc4OC)s3)CC2)cc1` [Example 88], for which the “% Activity / % Efficacy (relative efficacy)” value is “+++ (“+++” means>100%)” and the pEC50 is over 5.00.

In the case of `COc1ccc(C2(C(=O)Nc3ncc(Cc4cccc(F)c4Cl)s3)CC2)cc1` [Example 89], the pEC50 is over 5.00 and the Emax was over 100%.

For the molecule `COc1ccc(C2(C(=O)Nc3ncc(Cc4cc(F)ccc4Cl)s3)CC2)cc1` [Example 90], the “% Activity / % Efficacy (relative efficacy)” value is reported as “++ (“++” means between 25% to 100%)” and the pEC50 is over 5.00.

Regarding `NC(=O)C1(C(=O)Nc2ncc(Cc3ccccc3Cl)s2)CC1` [Example 91], the “% Activity / % Efficacy (relative efficacy)” value is “++ (“++” means between 25% to 100%)” and the negative-log EC50 (pEC50) was 4.60 to 5.00.

On to `O=C(Nc1ncc(Oc2ccccc2Cl)s1)C1(c2ccc3c(c2)OCO3)CC1` [Example 93], for which the “% Activity / % Efficacy (relative efficacy)” value is “+++ (“+++” means>100%)” and the negative-log EC50 (pEC50) was over 5.00.

For the molecule `COc1ccccc1Oc1cnc(NC(=O)C2(c3ccc4c(c3)OCO4)CC2)s1` [Example 94], the “% Activity / % Efficacy (relative efficacy)” value was “+++ (“+++” means>100%)” and the negative logarithm of the EC50 (pEC50) was over 5.00.

Regarding `COc1ccc(C2(C(=O)Nc3ncc(Sc4ccccc4N)s3)CC2)cc1` [Example 95], the negative logarithm of the EC50 (pEC50) is over 5.00 and the Emax was 25 to 100%.
